According to EP3381898A1, “SYMMETRICAL TRIS-ARYL-AMIDE DERIVATIVES AND THEIR USE AS ANTI-HEPARANASE” (priority 2017, dated 2018):
Where two headings read alike, the source gives them in different places.

Key:
heparanase = biological target: T1, heparanase (Homo sapiens, UniProt Q9Y251); experiment: AGA*IA assay: heparanase-catalyzed fondaparinux cleavage, colorimetric (WST-1); assay type: biochemical
T1 sequence (Q9Y251 158-543 limits assumed): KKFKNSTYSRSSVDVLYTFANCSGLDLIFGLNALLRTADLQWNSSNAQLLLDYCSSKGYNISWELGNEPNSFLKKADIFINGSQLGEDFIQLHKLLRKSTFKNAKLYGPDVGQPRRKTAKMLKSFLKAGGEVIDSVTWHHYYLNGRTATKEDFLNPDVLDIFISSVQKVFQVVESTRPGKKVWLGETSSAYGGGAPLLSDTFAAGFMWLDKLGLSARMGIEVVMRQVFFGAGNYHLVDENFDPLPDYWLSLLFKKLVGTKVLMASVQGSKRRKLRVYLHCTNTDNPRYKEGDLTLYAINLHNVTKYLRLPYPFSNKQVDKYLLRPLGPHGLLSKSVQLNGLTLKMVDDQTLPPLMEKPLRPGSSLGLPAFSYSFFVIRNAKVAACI
T1 sequence (Q9Y251 36-109 limits assumed): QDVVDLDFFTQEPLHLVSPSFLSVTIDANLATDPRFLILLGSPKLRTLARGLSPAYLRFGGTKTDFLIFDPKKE
Experimental: All compounds were tested in a simple, accurate and robust microplate assay based on the cleavage of the synthetic heparin fragment, the pentasaccharide Fondaparinux (AGA*IA). This assay was originally developed by Hammond and coworkers (Hammond E, Li CP, Ferro V. Development of a colorimetric assay for heparanase activity suitable for kinetic analysis and inhibitor screening. Anal. Biochem. 396(1), 112-116 (2010)), where Fondaparinux corresponds to the methyl glycoside of the antithrombin III (ATIII)-activating pentasaccharide sequence of heparin. Fondaparinux is cleaved by heparanase to generate a reducing disaccharide, which can be quantitatively measured via a colorimetric or a fluorescence assay, the last by the fluorescent sensor polymer-H [Schiemann S, Lühn S, Alban S. Development of both colorimetric and fluorescence heparinase activity assays using fondaparinux as substrate. Anal. Biochem. 427(1), 82-89 (2012)].
The assay measures the appearance of the disaccharide product of heparanase-catalyzed fondaparinux cleavage colorimetrically using the tetrazolium salt WST-1. Assay was essentially performed as described with minor modifications. Briefly, NUNC ELISA 96-well plates were pre-treated with a solution of 4% BSA (bovin serum albumin) in phosphate-buffered saline containing 0.05% Tween 20 (PBST), for 2 h at 37°C, then washed three times with PBST, dried by tapping on paper towel and stored at -20°C. Before use, once again, the plates were washed with PBST.
Assay was carried out with 100 µl/well of assay solution containing 40 mM sodium acetate buffer (pH 5.0), 100 µM fondaparinux, 2.5 nM heparanase and serial dilutions of test compounds (tested in triplicate). Plates were sealed with adhesive tape and incubated, in the dark, for 3 h at 37°C, followed by development with 1.69 mM of the tetrazolium salt WST-1 solution in 0.1 M NaOH, for 1 h at 60°C. Then, the absorbance at 560 nm was measured through a microplate reader (Victor 3, Perkin Elmer).
Finally, the measurements were corrected by subtracting both the reagent background and the inner absorbance value of test compound.

[1] = system: U87MG (human glioblastoma astrocytoma); experiment: SRB Cell Cytotoxicity Assay (cell proliferation, 72h); assay type: cell-based; conditions: U-87 MG, 72 h, read-out: Concentration (µM) of test compounds at which the cell growth is inhibited by 50 %. U87MG
Experimental: (§1) SRB Cell Cytotoxicity Assay is an assay based upon the quantitative staining of cellular proteins by sulforhodamine B (SRB). This assay can be used for high-throughput drug screening ([…], Nature Protocol. 2006, 1, 112). Sulforhodamine B is an anionic aminoxanthene dye that forms an electrostatic complex with the basic amino acid residues of proteins under moderately acid conditions, which provides a sensitive linear response. […] Inhibition of cell proliferation was then measured by the classical colorimetric SRB Cell Cytotoxicity assay. Absorbance was measured by spectrophotometer at a wavelength of 510 nm and cell proliferation was determined as percent with respect to control cells (cells treated with the vehicle alone). EC50 values were then determined by GraphPad Prism.

[2] = system: HT1080 (human fibrosarcoma); experiment: as above; assay type: cell-based; conditions: HT-1080, 72 h, read-out: Concentration (µM) of test compounds at which the cell growth is inhibited by 50 %. HT1080
Experimental: as §1

[3] = system: U2OS (human osteosarcoma); experiment: as above; assay type: cell-based; conditions: 72 h, read-out: Concentration (µM) of test compounds at which the cell growth is inhibited by 50 %. U2OS
Experimental: as §1

[4] = Table 1, range activity classes, AGA*IA test on Fondaparinux, read-out: AGAIA assay IC50
[5] = Table 2, classes as in Table 1, read-out: AGA*IA assay

Structure (SMILES) | IC50 (heparanase; AGA*IA screening, read-out: anti-heparanase activity) [nM] | IC50 (heparanase; [4]) [nM] | IC50 (heparanase; [5]) [nM] | EC50 [1] [µM] | EC50 [2] [µM] | EC50 [3] [µM]
Cn1cc(NC(=O)c2cccc(NC(=O)Nc3cccc(C(=O)Nc4cc(C(=O)Nc5cccc(CC(=O)N[C@@H](Cc6ccccc6)C(=O)O)c5)n(C)c4)c3)c2)cc1C(=O)Nc1cccc(CC(=O)N[C@@H](Cc2ccccc2)C(=O)O)c1 [Compound 12e, 2,2'-{carbonylbis[imino-3,1-phenylenecarbonylimino(1-methyl-1H-pyrrole-4,2-diyl)carbonylimino-3,1-phenylene(1-oxoethane-2,1-diyl)imino]}bis(3-phenylpropanoic acid)] | < 500 | 50 to 490 | 50 to 490 | > 2.5 | > 2.5 | > 2.5
Cn1cc(NC(=O)Nc2cc(C(=O)Nc3cc(C(=O)Nc4cccc(CC(=O)O)c4)n(C)c3)n(C)c2)cc1C(=O)Nc1cc(C(=O)Nc2cccc(CC(=O)O)c2)n(C)c1 [Compound 17h, 2,2'-{carbonylbis[imino(1-methyl-1H-pyrrole-4,2-diyl)carbonylimino(1-methyl-1H-pyrrole-4,2-diyl)carbonylimino-3,1-phenylene]}diacetic acid] | – | 500 to 990 | 500 to 990 | > 2.5 | > 2.5 | > 2.5
Cn1cc(NC(=O)c2ccc(Oc3ccc(C(=O)Nc4cc(C(=O)Nc5cccc(CC(=O)N[C@@H](CCC(=O)O)C(=O)O)c5)n(C)c4)cc3)cc2)cc1C(=O)Nc1cccc(CC(=O)N[C@@H](CCC(=O)O)C(=O)O)c1 [Compound 36f, (2S,2'S)-2,2'-((2,2'-(((4,4'-((4,4'-Oxybis(benzoyl))bis(azanediyl))bis(1-methyl-1H-pyrrole-2,2'-carbonyl))bis(azanediyl))bis(3,1-phenylene))bis(acetyl))bis(azanediyl))dipentanedioic acid] | – | 1000 to 20000 | – | – | – | –
CC(C)C[C@H](NC(=O)Cc1cccc(NC(=O)c2cc(NC(=O)c3cc(NC(=O)Nc4cc(C(=O)Nc5cc(C(=O)Nc6cccc(CC(=O)N[C@@H](CC(C)C)B(O)O)c6)n(C)c5)n(C)c4)cn3C)cn2C)c1)B(O)O [Compound 41, ((1R,1'R)-((2,2'-(((4,4'-((4,4'-(carbonylbis(azanediyl))bis(1-methyl-1H-pyrrole-4,2-diyl-2-carbonyl))bis(azanediyl))bis(1-methyl-1H-pyrrole-4,2-diyl-2-carbonyl))bis(azanediyl))bis(3,1-phenylene))bis(acetyl))bis(azanediyl))bis(3-methylbutane-1,1-diyl))diboronic acid] | – | 1000 to 20000 | – | – | – | –
CC(C)C[C@H](NC(=O)Cc1cccc(NC(=O)c2cc(NC(=O)c3ccc(Oc4ccc(C(=O)Nc5cc(C(=O)Nc6cccc(CC(=O)N[C@@H](CC(C)C)B(O)O)c6)n(C)c5)cc4)cc3)cn2C)c1)B(O)O [Compound 42, ((1R,1'R)-((2,2'-(((4,4'-((4,4'-Oxybis(benzoyl))bis(azanediyl))bis(1-methyl-1H-pyrrole-2,2'-carbonyl))bis(azanediyl))bis(3,1-phenylene))bis(acetyl))bis(azanediyl))bis(3-methylbutane-1,1-diyl))diboronic acid] | – | 1000 to 20000 | – | – | – | –
CC(C)C[C@H](NC(=O)Cc1cccc(NC(=O)c2cc(NC(=O)c3cccc(NC(=O)Nc4cccc(C(=O)Nc5cc(C(=O)Nc6cccc(CC(=O)N[C@@H](CC(C)C)B(O)O)c6)n(C)c5)c4)c3)cn2C)c1)B(O)O [Compound 43, ((1R,1'R)-((2,2'-(((4,4'-((3,3'-(Carbonylbis(azanediyl))bis(benzoyl))bis(azanediyl))bis(1-methyl-1H-pyrrole-4,2-diyl-2-carbonyl))bis(azanediyl))bis(3,1-phenylene))bis(acetyl))bis(azanediyl))bis(3-methylbutane-1,1-diyl))diboronic acid] | – | 1000 to 20000 | – | – | – | –
CC(C)C[C@H](NC(=O)CNC(=O)Cc1cccc(NC(=O)c2cc(NC(=O)c3cc(NC(=O)Nc4cc(C(=O)Nc5cc(C(=O)Nc6cccc(CC(=O)NCC(=O)N[C@@H](CC(C)C)B(O)O)c6)n(C)c5)n(C)c4)cn3C)cn2C)c1)B(O)O [Compound 46, ((1R,1'R)-((2,2'-((2,2'-(((4,4'-((4,4'-(carbonylbis(azanediyl))bis(1-methyl-1H-pyrrole-4,2-diyl-2-carbonyl))bis(azanediyl))bis(1-methyl-1H-pyrrole-4,2-diyl-2-carbonyl))bis(azanediyl))bis(3,1-phenylene))bis(acetyl))bis(azanediyl))bis(acetyl))bis(azanediyl))bis(3-methylbutane-1,1-diyl))diboronic acid] | – | 1000 to 20000 | – | – | – | –
CC(C)C[C@H](NC(=O)CNC(=O)Cc1cccc(NC(=O)c2cc(NC(=O)c3cccc(NC(=O)Nc4cccc(C(=O)Nc5cc(C(=O)Nc6cccc(CC(=O)NCC(=O)N[C@@H](CC(C)C)B(O)O)c6)n(C)c5)c4)c3)cn2C)c1)B(O)O [Compound 47, ((1R,1'R)-((2,2'-((2,2'-(((4,4'-((3,3'-(Carbonylbis(azanediyl))bis(benzoyl))bis(azanediyl))bis(1-methyl-1H-pyrrole-4,2-diyl-2-carbonyl))bis(azanediyl))bis(3,1-phenylene))bis(acetyl))bis(azanediyl))bis(acetyl))bis(azanediyl))bis(3-methylbutane-1,1-diyl))diboronic acid] | – | 1000 to 20000 | – | – | – | –
